From patent US8268823B2, “Medical use of triazine derivatives” (University of Greenwich, priority 2006, dated 2012)
Like-named read-outs stand apart in the source and are kept apart here.

Tests used:
[1] = test system: sodium channel; test: veratrine-evoked uptake of [14C]guanidine into rat forebrain synaptosomes ([14C]guanidine flux); type: biochemical
Experimental: The screening strategy is designed to select compounds with appropriate sodium channel blocking activity and low side effect liability. To this end all compounds are processed through the primary sodium channel assay (veratrine-evoked uptake of [^14C]guanidine into rat forebrain synaptosomes) and IC50 values computed from generated concentration-effect curves.
Synaptosomes (heavy and light mitochondrial fraction containing synaptosomes) were prepared by transferring the forebrain (of known wet weight) to a glass Potter vessel to which 9 volumes ice-cold 0.25M sucrose had been added and homogenising, using a teflon pestle, by 8 ‘up and down strokes’ of a Braun Potter S motor driven homogeniser set to 900 rpm. The resulting homogenate was centrifuged at 1036×g at 4° for 10 min and the supernatant collected. The remaining pellet was resuspended, as above, in fresh ice-cold 0.25M sucrose and the centrifugation step repeated. The supernatant fractions were pooled and centrifuged at 40,000×g (average) at 4° for 15 min and the resulting pellet resuspended in the appropriate assay buffer at a concentration of 20-25 mg wet weight per ml appropriate assay buffer.
Both assays were carried out using 14 ml polypropylene test tubes to which a range of concentrations of the compounds under test were added.
Compounds under test were pre-incubated for 10 min at 30° in incubation buffer (50 mM pH 7.4 HEPES (adjusted to pH 7.4 with Tris base), 130 mM choline chloride, 5.5 mM D-glucose, 0.8 mm MgSO4 and 5 mM KCl) containing 7.5 mg original wet weight of tissue and 100 μg veratrine HCl in a final volume of 0.5 ml. […] A further 2×5 ml of ice-cold wash buffer was added to each tube and the vacuum filtration step repeated. The GF/C glass fibre filters were transferred to minivials and 4 ml Picofluor^40 liquid scintillant added using a Brandel™ deposit/dispense system. Radioactivity was measured using a Beckman Liquid Scintillation Counter.
(§1) Data are presented as mean±sem of number of experiments indicated in brackets.

[2] = target: T1, DiHydroFolate Reductase (DHFR) (Rattus norvegicus, UniProt Q920D2); test: inhibition of binding of [3H]methotrexate to rat liver homogenate supernatant
T1 construct: from tissue; host or cells: rat liver homogenate supernatant (47,500 x g)
T1 sequence (Q920D2 1-187): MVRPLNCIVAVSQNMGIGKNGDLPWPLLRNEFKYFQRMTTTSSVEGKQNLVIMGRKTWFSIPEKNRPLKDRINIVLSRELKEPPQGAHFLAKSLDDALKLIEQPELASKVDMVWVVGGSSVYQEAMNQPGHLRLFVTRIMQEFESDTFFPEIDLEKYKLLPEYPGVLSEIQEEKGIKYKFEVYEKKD
Experimental: All steps were carried out at 4° (or on ice). Freshly dissected rat liver was dissected into 0.25M ice-cold Sucrose and subsequently homogenised (U-turrax) in 50 mM pH 6.0 phosphate buffer (10 ml/g tissue) containing 15 mM Dithiothreitol. The resulting homogenate was centrifuged @ 47,500×g for 20 min and supernatant (filtered through cotton wool to remove fatty lumps) stored @-80° before use (Rothenberg et al).
The binding reaction was stopped by the addition of 50 μl of a charcoal suspension (consisting of charcoal, Bovine Serum Albumin and Dextran present in a weight ratio of 100:4:1 suspended in 50 mM pH 6.0 phosphate buffer. Samples were vortexed, allowed to stand for 2 minutes and charcoal was precipitated by microcentrifugation @ full speed for 5 min. Aliquots of clear supernatant were transferred to counting vials containing liquid scintillant for measurement of radioactivity using Liquid Scintillation Spectroscopy.
Percentage inhibition values were calculated by comparison to this value.
as §1

[3] = target: T2, hERG potassium channel (Homo sapiens, UniProt Q12809); test: in vitro
T2 sequence (Q12809 whole entry): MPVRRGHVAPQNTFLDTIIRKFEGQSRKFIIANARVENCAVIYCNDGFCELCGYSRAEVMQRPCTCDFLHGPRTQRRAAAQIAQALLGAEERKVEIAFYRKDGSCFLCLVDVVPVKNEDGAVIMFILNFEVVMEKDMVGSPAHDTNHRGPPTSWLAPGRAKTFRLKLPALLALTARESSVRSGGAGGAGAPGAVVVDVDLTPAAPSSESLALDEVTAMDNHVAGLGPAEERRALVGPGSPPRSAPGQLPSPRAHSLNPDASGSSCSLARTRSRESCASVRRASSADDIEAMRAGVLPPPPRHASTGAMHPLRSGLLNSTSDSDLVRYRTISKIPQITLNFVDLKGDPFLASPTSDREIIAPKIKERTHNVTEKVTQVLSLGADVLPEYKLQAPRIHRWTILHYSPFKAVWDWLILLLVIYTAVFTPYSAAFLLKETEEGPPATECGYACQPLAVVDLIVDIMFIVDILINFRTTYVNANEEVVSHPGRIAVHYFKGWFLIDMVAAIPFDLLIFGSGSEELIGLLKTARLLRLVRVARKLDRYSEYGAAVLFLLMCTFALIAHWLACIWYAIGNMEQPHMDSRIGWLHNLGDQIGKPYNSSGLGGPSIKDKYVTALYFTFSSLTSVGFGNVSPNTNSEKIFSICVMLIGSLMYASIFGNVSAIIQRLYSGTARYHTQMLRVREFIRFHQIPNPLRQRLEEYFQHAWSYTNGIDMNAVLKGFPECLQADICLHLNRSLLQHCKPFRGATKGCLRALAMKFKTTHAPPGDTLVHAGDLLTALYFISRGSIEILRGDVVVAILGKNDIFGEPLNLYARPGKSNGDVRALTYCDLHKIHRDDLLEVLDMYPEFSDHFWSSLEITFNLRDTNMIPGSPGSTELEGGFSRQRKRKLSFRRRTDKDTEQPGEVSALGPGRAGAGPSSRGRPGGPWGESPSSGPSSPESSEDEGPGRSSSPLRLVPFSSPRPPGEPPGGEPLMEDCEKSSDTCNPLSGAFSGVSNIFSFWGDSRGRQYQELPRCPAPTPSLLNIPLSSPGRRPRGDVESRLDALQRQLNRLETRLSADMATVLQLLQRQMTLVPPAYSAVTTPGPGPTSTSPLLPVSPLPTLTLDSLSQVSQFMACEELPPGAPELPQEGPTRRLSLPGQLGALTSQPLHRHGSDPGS

[4] = target: T2, hERG potassium channel; test: inhibition of binding of [3H]astemizole to cell membranes expressing hERG; settings: for selectivity ratio: human, cell membranes expressing hERG, probe [3H]astemizole
[5] = test system: sodium channel; type: binding, rat
[6] = Table 3, rat forebrain synaptosomes, read-out: [14C]guanidine flux Mean (IC50: μM)
[7] = Table 5, read-out: [14C]guanidine flux IC50
[8] = read-out: [3H]methotrexate binding Inhibition (% @ assay conc'n), assay concentration 10 μM
[9] = read-out: [3H]methotrexate binding Inhibition (% @ assay conc'n), assay concentration 99 μM

SMILES | IC50 [1, 6] [µM] | IC50 [1, 7] [µM] | inhibition at 10 µM [2, 8] [%] | inhibition at 99 µM [2, 9] [%] | inhibition at 10 µM [3] [%] | IC50 [4] [µM] | selectivity ratio [4] | inhibition at 198 µM ([2]; read-out: [3H]methotrexate binding Inhibition (% @ assay conc'n), assay concentration 198 μM) [%] | pIC50 (uptake of [14C]guanidine) ([1]; Table 8) | IC50 ([1]; Table 8, read-out: IC50 (μM) (uptake of [14C]guanidine)) [µM] | Hill (uptake of [14C]guanidine) ([1]; Table 8, slope) | IC50 ([5]; Table 1, synaptosomes, mean ± sem (n), read-out: [3H]BTX-B binding (synaptosomes), mean IC50) [µM] | IC50 ([5]; Table 4, tissue prep'n Homogenate, read-out: [3H]BTX-B binding Mean (IC50: μM)) [µM] | IC50 ([5]; Table 4, tissue prep'n Synaptosomes, read-out: [3H]BTX-B binding Mean (IC50: μM)) [µM] | [3H]methotrexate binding Inhibition (% @ assay conc'n) ([2]; assay concentration 10 μM) [%] | [3H]methotrexate binding Inhibition (% @ assay conc'n) ([2]; assay concentration 99 μM) [%] | IC50 ([2]; rat liver supernatant) [µM]
N=c1nc(N)c(-c2cccc(Cl)c2Cl)nn1Cc1cccc(F)c1 [Example 15, 5(3)-Amino-6-(2,3-dichlorophenyl)-2,3(2,5)-dihydro-3(5)-imino-2-(3-fluoro)phenylmethyl-1,2,4-triazine] | 3.9 | 3.9 | -4 | -5 | 83 | 2 | 0.5 | – | – | – | – | – | – | – | – | – | –
COc1ccccc1Cn1nc(-c2cccc(Cl)c2Cl)c(N)nc1=N [Example 17, 5(3)-Amino-6-(2,3-dichlorophenyl)-2,3(2,5)-dihydro-3(5)-imino-2-(2-methoxy)phenylmethyl-1,2,4-triazine] | 4.6 | 4.6 | -4 | – | 84 | 1.9 | 0.4 | -3 | – | – | – | – | – | – | – | – | –
Nc1nc(N)c(-c2cc(Cl)cc(Cl)c2Cl)c(CF)n1 [BW202W92, reference compound] | 2 | – | – | – | – | – | – | – | 5.61 ± 0.04 | 2.5 | 1.07 | 4.5 ± 0.4 | 4.1 | 4.5 | −1 | 29 | –
N=c1nc(N)c(-c2cccc(Cl)c2Cl)nn1Cc1ccccc1F [Example 14, 5(3)-Amino-6-(2,3-dichlorophenyl)-2,3(2,5)-dihydro-3(5)-imino-2-(2-fluoro)phenylmethyl-1,2,4-triazine] | 2.8 | 2.8 | -1 | -4 | 80 | 2.5 | 0.9 | – | – | – | – | – | – | – | – | – | –
N=c1nc(N)c(-c2cccc(Cl)c2Cl)nn1CC1CCNCC1 [Example 38, 4-[5(3)-Amino-6-(2,3-dichlorophenyl)-2,3(2,5)-dihydro-3(5)-imino-1,2,4-triazin-2-ylmethyl]piperidine dimethanesulfonate or 5(3)-Amino-6-(2,3-dichlorophenyl)-2,3(2,5)-dihydro-3(5)-imino-2-(piperidin-4-yl)methyl-1,2,4-triazine] | 20.9 | 20.9 | – | – | 80 | 2.5 | 0.1 | – | – | – | – | – | – | – | – | – | > 300
N=c1nc(N)c(-c2cccc(Cl)c2Cl)nn1Cc1cccc(F)c1F [Example 13, 5(3)-Amino-6-(2,3-dichlorophenyl)-2,3(2,5)-dihydro-3(5)-imino-2-(2,3-difluoro)phenylmethyl-1,2,4-triazine] | 2.8 | 2.8 | -3 | -4 | 84 | 1.9 | 0.7 | – | – | – | – | – | – | – | – | – | –
N=c1nc(N)c(-c2cccc(Cl)c2Cl)nn1Cc1cccc(C(F)(F)F)c1 [Example 24, 5(3)-Amino-6-(2,3-dichlorophenyl)-2,3(2,5)-dihydro-3(5)-imino-2-(3-trifluoromethyl)phenylmethyl-1,2,4-triazine] | 4 | 4 | – | – | 94 | 0.6 | 0.2 | – | – | – | – | – | – | – | – | – | –
C=CCn1nc(-c2cccc(Cl)c2Cl)c(N)nc1=N [Example 10, 5(3)-Amino-6-(2,3-dichlorophenyl)-2,3(2,5)-dihydro-3(5)-imino-2-(prop-2-enyl)-1,2,4-triazine hemi-methanesulfonate] | 6.1 | 6.1 | -2 | -1 | 50 | 10 | 1.6 | – | – | – | – | – | – | – | – | – | –
N=c1nc(N)c(-c2cccc(Cl)c2Cl)nn1Cc1ccccc1C(F)(F)F [Example 23, 5(3)-Amino-6-(2,3-dichlorophenyl)-2,3(2,5)-dihydro-3(5)-imino-2-(2-trifluoromethyl)phenylmethyl-1,2,4-triazine] | 4.4 | 4.4 | – | – | 90 | 1.1 | 0.3 | – | – | – | – | – | – | – | – | – | –
